Entries after “also recorded” stand apart in the source; their conditions may differ. Marks after values point to notes of the source that are not given here.
Legend:
[1] = Example 1: general conditions and autopsical finding; format: in vivo, CDF1 male mice; settings: 0.5% in feed, 2 weeks
Description: (§1) 5-Sitosten-3-one was prepared according to the method of Parish (Parish, E. J., et al., Synthetic Communication, 22, pp.2839-2847, 1992) by using β-sitosterol (Tokyo Chemical Industry Co., Ltd.) as a starting material and used in the experiments. The content ratio of 24-ethyl and 24-methyl compounds in the synthesized product was 6.5:3.5. As experimental animals, six CDF1 male mice (5-week old, Charles River Japan Inc.) were used in each experimental group. The animals were fed in aluminum cages for mice, and allowed to feed and water ad libitum. The animals were fed for 2 weeks under feeding conditions at a temperature of 24±1° C. and a relative humidity of 55±5%, where light and darkness were controlled to change every 12 hours, and each cage and floor mat (white flakes) were exchanged twice a week.
(§2) Modified AIN (Oriental Yeast Co.) was used as basic feed and mixed with 0.5% 5-sitosten-3-one to prepare test feeds. A feed used as a positive control was prepared by adding 0.5% of 4-cholesten-3-one (Japanese Patent Unexamined Publication No. Hei 5-170651/1993) to the basic feed. Non-treated mice as a control were fed solely with the basic feed. The basic feed was composed of 22.8% crude protein, 54.1% carbohydrates, 6.0% lipids, 4.9% fibers, 2.9% ash, and 8.7% water, and its calorie was 1,523 kJ. The feed was stored at 4° C. after preparation, and a fresh feed was supplied every day.
(§3) The animals were weighed at given intervals of time, and the average values and standard errors of the experimental groups were determined. In addition, feed consumptions were measured at given intervals of time and daily averages per mouse were determined. The animals were observed every day. After the end of the feeding, the animals were anesthetized to death with carbon dioxide gas, and bloods were collected from the vena cava to obtain serums. The animals were autopsied, and the brains, lungs, hearts, livers, spleens, kidneys, testis, adrenals and intraperitoneal fat were examined by the naked eye and weighed. As to serum lipid, neutral fats were measured by using a clinical test kit based on the enzyme method (Triglyceride-E Test, Wako Pure Chemicals Industries Co., Ltd.), and total cholesterol and cholestanol were measured by the method of Kasama (T. Kasama, et al., J. Chromatogr., 400, 241, 1987) with modifications, where the amount of benzoyl chloride was increased by 10 times, the reaction time was doubled, and the measurement was performed by using a high performance liquid chromatography system. Significant differences were determined by t-test for body weights and serum lipids on the basis of the non-treated control mice.

[2] = Example 1: body weight, body fat and feed intake of mice fed feed supplemented with 0.5% test compound; format: in vivo, CDF1 male mice; settings: ratio relative to the non-treated control group, CDF1 mice
Description: as §1, §2, §3

[3] = Example 1: serum lipids and serum metabolites of mice fed feed supplemented with 0.5% test compound; format: in vivo; settings: for Serum cholesterol / Serum neutral fats: ratio relative to the non-treated control group
Description: as §1, §2, §3

[4] = Example 4: body weight and body fat of mice fed 0.5% test compound for 14 days; format: in vivo, CDF1 male mice; settings: 0.5% in feed; for Intraperitoneal fat: mean (n=6) ± standard error; for Decrease of body fat: versus non-treated mice
Description: (§4) 5-Campesten-3-one was prepared from campesterol (>97%, Tama Biochemical Industry, Ltd.). 4-Sitosten-3,6-dione was prepared from β-sitosterol (>65%, Tokyo Chemical Industry Co., Ltd.) and obtained as a mixture of 24-ethyl compound and 24-methyl compound (2:1). 5-Stigmasten-3-one was prepared from stigmasterol (>94%, Tokyo Chemical Industry, Co., Ltd.). As experimental animals, six CDF1 male mice (5-week old, Charles River Japan Inc.) were used in each experimental group. Modified AIN (Oriental Yeast Co.) was used as basic feed and mixed with 0.5% of each test compound to prepare test feeds. The animals were allowed to feed with the test food ad libitum for 14 days. Measurements of body weights and observations of general conditions of the animals were carried out twice a week, and the animals were subjected to autopsy and their bloods were collected. Serum lipid analysis was conducted by using a clinical test kit based on the enzymatic method (Wako Pure Chemicals Industries Co., Ltd.). Significances of the resulting values were examined by the one-way analysis of variance with pairwise comparison (ANOVA) according to the Bonferroni method. Other conditions were the same as those described in Example 1.

[5] = Example 4: serum lipid concentration of mice fed 0.5% test compound for 14 days; format: in vivo, CDF1 male mice; settings: 0.5% in feed; for Total cholesterol / Triglyceride: mean (n=6) ± standard error
Description: as §4

[6] = Example 2: serum (plasma) lipid concentrations of mice fed 0.5% test compound; format: in vivo, CDF1 male mice; settings: 0.5% in feed; for Free fatty acid / HDL-cholesterol / Phospholipid / Total cholesterol / Triglyceride: mean (n=6) ± standard error
From the text: (§5) As 24-alkylcholesten-3-ones, (1) 4-sitosten-3-one, (2) 6α-hydroxy-4-sitosten-3-one, and (3) 6-hydroxy-4-sitosten-3-one (α:β=2.6:1) were synthesized by using β-sitosterol (Tokyo Chemical Industries Co., Ltd.). The content ratio of 24-ethyl and 24-methyl compounds in the synthesized product was 6.5:3.5. As experimental animals, six CDF1 male mice (5-week old, Charles River Japan Inc.) were used in each experimental group. A purified feed (Modified AIN, Oriental Yeast Co.) was used as a basic feed and mixed with 0.5% test compounds to prepare test feeds. The animals were allowed to feed and water ad libitum. The animals were weighed and observed to examine general conditions twice a week. The animals were subjected to autopsy after the end of the feeding, and their bloods were collected. Lipid concentrations in the separated serums were measured by using a clinical test kit based on the enzyme method (Wako Pure Chemicals Industries Co., Ltd.). Significances of the resulting experimental values were examined by the variance analysis. The other experimental conditions were the same as in Example 1.

[7] = Example 2: body weight, feed intake, feed efficiency and intraperitoneal fat of mice fed 0.5% test compound; format: in vivo, CDF1 male mice; settings: 0.5% in feed; for Feed efficiency (body weight gain/feed intake): 14 days; for Intraperitoneal fat: mean (n=6) ± standard error; for Body weight gain: total for 14 days; for Decrease of intraperitoneal fat: versus control
From the text: as §5

[8] = metabolite of the test compound detected in serum, CDF1 mice
[9] = male, CDF1, mouse, in vivo, 2 weeks

With `CC(C)CCC[C@@H](C)[C@H]1CC[C@H]2[C@@H]3CCC4=CC(=O)CC[C@]4(C)[C@H]3CC[C@]12C` [4-Cholesten-3-one, 4-cholesten-3-one] the Spleens at autopsy [1] was “enlargements”, the Body weight gain [2] was 72^a % and the Intraperitoneal fat [2] was 74%. For the same compound, the “Neutral fats (serum), mean ± standard error” value ([3]; 0.5% in feed, 2 weeks, n=6) was 197.7 ± 28.1 mg/dL, the “Total cholesterol (serum), mean ± standard error” value ([3]; 0.5% in feed, 2 weeks, n=6) was 99.2 ± 5.8 mg/dL and the Serum metabolite [3, 8] was “Cholestanol”. For the same compound, the Serum metabolite ([3]; metabolite of the test compound detected in serum, CDF1 mice, listed as 4-cholesten-3-one) was “cholestanol”, the Serum cholesterol ([3]; CDF1 mice) was 62% and the Serum neutral fats ([3]; CDF1 mice) was 54%.
Work on `CC(C)CCC[C@@H](C)[C@H]1CC[C@H]2[C@@H]3CC(=O)C4=CC(=O)CC[C@]4(C)[C@H]3CC[C@]12C` [4-Cholestene-3,6-dione] yielded a Body weight gain [2] of −62%, an Intraperitoneal fat [2] of 23% and a Serum metabolite [3, 9] of 0. For the same compound, the Serum cholesterol ([3]; CDF1 mice) was 60% and the Serum neutral fats ([3]; CDF1 mice) was 36%.
In the case of `CC[C@H](CC[C@@H](C)[C@H]1CC[C@H]2[C@@H]3CC(=O)C4=CC(=O)CC[C@]4(C)[C@H]3CC[C@]12C)C(C)C` [4-Sitosten-3,6-dione], the “Effect on the increase of body weight (FIG. 6)” value [4] is reported as “Significant inhibitory effects”, the Intraperitoneal fat [4] is reported as 472.7 ± 37.7 mg and the “Decrease of body fat” value [4] is reported as about 40%. For the same compound, the “Decrease of serum total cholesterol concentration” value [5] was about 18%, the “Decrease of serum triglyceride concentration” value [5] was about 66% and the Total cholesterol [5] was 156.3 ± 6.4 mg/dL. The Triglyceride [5] was 85.8 ± 9.2 mg/dL.
Work on `CC[C@H](CC[C@@H](C)[C@H]1CC[C@H]2[C@@H]3CCC4=CC(=O)CC[C@]4(C)[C@H]3CC[C@]12C)C(C)C` [4-Sitosten-3-one, 4-sitosten-3-one] yielded a Free fatty acid [6] of 0.92 ± 0.03 mEq/dl, an HDL-cholesterol [6] of 42.4 ± 6.36 mg/dL and a Phospholipid [6] of 271.0 ± 9.5 mg/dL. The Total cholesterol [6] was 151.4 ± 5.7 mg/dL, the Triglyceride [6] was 130.9 ± 4.9 mg/dL and the “Feed efficiency (change)” value [7] was “only slight changes”. The “Suppression of body weight (FIG. 3)” value [7] was “no significant suppression”, the “Feed efficiency (body weight gain/feed intake)” value [7] was 0.087 and the Intraperitoneal fat [7] was 841.5 ± 69.0 mg. For the same compound, the Body weight gain [7] was 3.71 g/mouse and the “Decrease of intraperitoneal fat” value [7] was “not signilficant”.
For `CC(C)CCC[C@@H](C)[C@H]1CC[C@H]2[C@@H]3CC[C@@H]4CC(=O)CC[C@]4(C)[C@H]3CC[C@]12C` [5 β-Cholestan-3-one, 5β-cholestan-3-one], the Body weight gain [2] was 51%, the Intraperitoneal fat [2] was 71% and the Serum metabolite [3, 8] was “Cholestanol”. For the same compound, the Serum metabolite ([3]; metabolite of the test compound detected in serum, CDF1 mice, listed as 5β-cholestan-3-one) was “cholestanol or coprostanol”, the Serum cholesterol ([3]; CDF1 mice) was 75% and the Serum neutral fats ([3]; CDF1 mice) was 70%.
With `CC(C)[C@H](C)CC[C@@H](C)[C@H]1CC[C@H]2[C@@H]3CC=C4CC(=O)CC[C@]4(C)[C@H]3CC[C@]12C` [5-Campesten-3-one, 5-campesten-3-one (24-methylcholest-5-en-3-one)] the “Effect on the increase of body weight (FIG. 6)” value [4] was “Significant inhibitory effects; also recorded: remarkably suppressed”, the Intraperitoneal fat [4] was 86.4 ± 19.9 mg and the “Decrease of body fat” value [4] was “about 90%”. For the same compound, the “Decrease of serum total cholesterol concentration” value [5] was “about 34%”, the “Decrease of serum triglyceride concentration” value [5] was “about 45%” and the Total cholesterol [5] was 125.8 ± 4.0 mg/dL. For the same compound, the Triglyceride [5] was 138.9 ± 18.7 mg/dL.
`CC(C)CCC[C@@H](C)[C@H]1CC[C@H]2[C@@H]3CC=C4CC(=O)CC[C@]4(C)[C@H]3CC[C@]12C` [5-Cholesten-3-one] gave a Body weight gain [2] of −16%, an Intraperitoneal fat [2] of 37% and a Serum metabolite [3, 9] of 0. The Serum cholesterol ([3]; CDF1 mice) was 68% and the Serum neutral fats ([3]; CDF1 mice) was 30%.
For `CC[C@H](CC[C@@H](C)[C@H]1CC[C@H]2[C@@H]3CC=C4CC(=O)CC[C@]4(C)[C@H]3CC[C@]12C)C(C)C` [5-Stigmasten-3-one], the Intraperitoneal fat [4] was 745.7 ± 46.7 mg, the “Decrease of serum total cholesterol concentration” value [5] was about 49% and the “Decrease of serum triglyceride concentration” value [5] was about 68%. It also gave a Total cholesterol [5] of 97.9 ± 3.4 mg/dL and a Triglyceride [5] of 82.0 ± 6.7 mg/dL.
`CC(C)CCC[C@@H](C)[C@H]1CC[C@H]2[C@@H]3C[C@@H](Br)C4=CC(=O)CC[C@]4(C)[C@H]3CC[C@]12C` [6 β-Bromo-4-cholesten-3-one, 6β-bromo-4-cholesten-3-one] showed a Body weight gain [2] of 48%, an Intraperitoneal fat [2] of 62% and a Serum cholesterol ([3]; CDF1 mice) of 98%. The Serum neutral fats ([3]; CDF1 mice) was 89%.
In the case of `CC(C)CCC[C@@H](C)[C@H]1CC[C@H]2[C@@H]3CC(O)C4=CC(=O)CC[C@]4(C)[C@H]3CC[C@]12C` (some centres unmarked) [6-Hydroxy-4-cholesten-3-one], the Body weight gain [2] is reported as 50%, the Intraperitoneal fat [2] is reported as 63% and the Serum metabolite [3, 9] is reported as 0. It also gave a Serum cholesterol ([3]; CDF1 mice) of 80% and a Serum neutral fats ([3]; CDF1 mice) of 47%.
With `CC[C@H](CC[C@@H](C)[C@H]1CC[C@H]2[C@@H]3CC(O)C4=CC(=O)CC[C@]4(C)[C@H]3CC[C@]12C)C(C)C` (stereo partly drawn) [6-Hydroxy-4-sitosten-3-one (α:β = 2.6:1), 6-hydroxy-4-sitosten-3-one (α:β=2.6:1)] the “Total cholesterol and phospholipid concentrations in plasma” value [6] was “significantly decreased”, the Free fatty acid [6] was 0.77 ± 0.03 mEq/dl and the HDL-cholesterol [6] was 45.0 ± 5.8 mg/dL. It also gave a Phospholipid [6] of 211.9 ± 5.1 mg/dL, a Total cholesterol [6] of 133.3 ± 5.7 mg/dL and a Triglyceride [6] of 76.5 ± 5.2 mg/dL. The “Feed efficiency (change)” value [7] was “remarkable decrease”, the “Suppression of body weight (FIG. 3)” value [7] was “potent suppressing effects” and the “Feed efficiency (body weight gain/feed intake)” value [7] was 0.044. The Intraperitoneal fat [7] was 481.8 ± 51.9 mg, the Body weight gain [7] was 1.82 g/mouse and the “Decrease of intraperitoneal fat” value [7] was 50%.
With `CC[C@H](CC[C@@H](C)[C@H]1CC[C@H]2[C@@H]3C[C@H](O)C4=CC(=O)CC[C@]4(C)[C@H]3CC[C@]12C)C(C)C` [6α-Hydroxy-4-sitosten-3-one, 6α-hydroxy-4-sitosten-3-one] the “Total cholesterol and phospholipid concentrations in plasma” value [6] was “significantly decreased”, the Free fatty acid [6] was 0.69 ± 0.04 mEq/dl and the HDL-cholesterol [6] was 36.7 ± 4.7 mg/dL. The Phospholipid [6] was 209.6 ± 7.8 mg/dL, the Total cholesterol [6] was 142.5 ± 5.1 mg/dL and the Triglyceride [6] was 66.8 ± 3.5 mg/dL. For the same compound, the “Feed efficiency (change)” value [7] was “remarkable decrease”, the “Suppression of body weight (FIG. 3)” value [7] was “potent suppressing effects” and the “Feed efficiency (body weight gain/feed intake)” value [7] was 0.022. For the same compound, the Intraperitoneal fat [7] was 369.8 ± 22.5 mg, the Body weight gain [7] was 0.86 g/mouse and the “Decrease of intraperitoneal fat” value [7] was 60%.
In the case of `CC(C)CCC[C@@H](C)[C@H]1CC[C@H]2[C@@H]3C=CC4=CC(=O)CC[C@]4(C)[C@H]3CC[C@]12C` [Colesta-4,6-dien-3-one], the Body weight gain [2] is reported as 59%, the Intraperitoneal fat [2] is reported as 69% and the Serum cholesterol ([3]; CDF1 mice) is reported as 63%. It also gave a Serum neutral fats ([3]; CDF1 mice) of 60%.
